From patent US20220363665A1, “QUINOLINE COMPOUNDS FOR THE TREATMENT OF AUTOIMMUNE DISEASE” (Hoffmann-La Roche Inc., priority 2019, published 2022)

Biological target: T1, human TLR9 (Homo sapiens, UniProt Q9NR96)
T1 construct: host or cells: HEK293 (HEK-Blue hTLR9)
T1 sequence (Q9NR96 26-1032): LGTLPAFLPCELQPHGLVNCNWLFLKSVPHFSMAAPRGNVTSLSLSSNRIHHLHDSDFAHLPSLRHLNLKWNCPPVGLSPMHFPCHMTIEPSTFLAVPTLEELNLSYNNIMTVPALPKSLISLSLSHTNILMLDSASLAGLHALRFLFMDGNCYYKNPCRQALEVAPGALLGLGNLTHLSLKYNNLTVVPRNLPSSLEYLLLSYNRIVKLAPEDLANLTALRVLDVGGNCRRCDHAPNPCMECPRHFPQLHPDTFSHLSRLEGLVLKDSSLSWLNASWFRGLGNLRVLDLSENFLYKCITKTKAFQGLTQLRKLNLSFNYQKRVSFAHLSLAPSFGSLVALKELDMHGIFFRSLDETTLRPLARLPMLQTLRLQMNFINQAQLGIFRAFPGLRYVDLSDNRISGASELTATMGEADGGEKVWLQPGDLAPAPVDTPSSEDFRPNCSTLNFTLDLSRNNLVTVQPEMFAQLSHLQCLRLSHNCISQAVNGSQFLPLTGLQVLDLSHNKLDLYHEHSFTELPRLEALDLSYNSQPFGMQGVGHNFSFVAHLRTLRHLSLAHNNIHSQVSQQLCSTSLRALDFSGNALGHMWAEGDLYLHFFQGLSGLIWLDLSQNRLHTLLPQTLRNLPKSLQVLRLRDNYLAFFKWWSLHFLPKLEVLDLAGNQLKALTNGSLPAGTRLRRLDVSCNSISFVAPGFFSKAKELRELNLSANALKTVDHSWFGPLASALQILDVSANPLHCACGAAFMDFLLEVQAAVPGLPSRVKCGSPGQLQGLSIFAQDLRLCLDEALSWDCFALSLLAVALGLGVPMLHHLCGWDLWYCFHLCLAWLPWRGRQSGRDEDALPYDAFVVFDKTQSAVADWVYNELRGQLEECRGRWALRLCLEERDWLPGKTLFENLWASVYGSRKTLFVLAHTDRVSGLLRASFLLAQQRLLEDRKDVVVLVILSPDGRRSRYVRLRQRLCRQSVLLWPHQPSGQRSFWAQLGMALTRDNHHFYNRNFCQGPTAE
Test: HEK293-Blue-hTLR-9 cells assay (SEAP reporter, ODN2006 stimulation)
Assay type: cell-based
Conditions: HEK293-Blue-hTLR9 cells, ODN2006, 20 hrs
Procedure: The following tests were carried out in order to determine the activity of the compounds of formula (I) in HEK293-Blue-hTLR-7/8/9 cells assay.
HEK293-Blue-hTLR-9 Cells Assay:
A stable HEK293-Blue-hTLR-9 cell line was purchased from InvivoGen (Cat. #. hkb-htlr9, San Diego, Calif., USA). These cells were originally designed for studying the stimulation of human TLR9 by monitoring the activation of NF-κB. A SEAP (secreted embryonic alkaline phosphatase) reporter gene was placed under the control of the […] minimal promoter fused to five NF-κB and AP-1-binding sites. The SEAP was induced by activating NF-κB and AP-1 via stimulating HEK-Blue hTLR9 cells with TLR9 ligands. Therefore the reporter expression was declined by TLR9 antagonist under the stimulation of a ligand, such as ODN2006 (Cat. #: tlrl-2006-1, Invivogen, San Diego, Calif., USA), for incubation of 20 hrs. The cell culture supernatant SEAP reporter activity was determined using QUANTI-Blue™ kit (Cat. #: rep-qbl, Invivogen, San Diego, Calif., USA) at a wavelength of 640 nm, a detection medium that turns purple or blue in the presence of alkaline phosphatase.
HEK293-Blue-hTLR9 cells were incubated at a density of […] cells/mL in a volume of 170 μL, in a 96-well plate in Dulbecco's Modified Eagle's medium (DMEM) containing 4.5 g/L glucose, 50 U/mL penicillin, […], […], 2 mM L-glutamine, 10% (v/v) heat-inactivated fetal bovine serum with addition of 20 μL test compound in a serial dilution in the presence of final DMSO at 1% and 10 μL of 20 uM ODN2006 in above DMEM, perform incubation under 37° C. in a CO2 incubator for 20 hrs. Then 20 μL of the supernatant from each well was incubated with 180 μL Quanti-blue substrate solution at 37° C. for 2 hrs and the absorbance was read at 620˜655 nm using a spectrophotometer. The signalling pathway that TLR9 activation leads to downstream NF-κB activation has been widely accepted, and therefore similar reporter assay was modified for evaluating TLR9 antagonist.

IC50 [µM] | Compound
41 | C[C@@H]1CN(c2ccc(C(F)(F)F)c3ncccc23)C[C@H](C(=O)N[C@@H]2CNC[C@@H]2F)O1 (single isomer, unassigned) [Example 2A]
34.6 | C[C@@H]1CN(c2ccc(C(F)(F)F)c3ncccc23)C[C@H](C(=O)N[C@H]2CNC[C@H]2F)O1 (single isomer, unassigned) [Example 2B]
42.7 | CC(NC(=O)[C@H]1CN(c2ccc(C(F)(F)F)c3ncccc23)C[C@@H](C)O1)C1CN(C)CCO1 (single isomer, unassigned) [Example 35A]
50.2 | CC(NC(=O)[C@H]1CN(c2ccc(C(F)(F)F)c3ncccc23)C[C@@H](C)O1)C1CN(C)CCO1 (single isomer, unassigned) [Example 35B]
23 | C[C@@H]1CN(c2ccc(C(F)(F)F)c3ncccc23)C[C@H](C(=O)NC2C3CNCC2COC3)O1 (single isomer, unassigned) [Example 46A]
15.3 | C[C@@H]1CN(c2ccc(C(F)(F)F)c3ncccc23)C[C@H](C(=O)NC2C3CNCC2COC3)O1 (single isomer, unassigned) [Example 46B]
10.7 | C[C@@H]1CN(c2ccc(C(F)(F)F)c3ncccc23)C[C@H](C(=O)NC2CC3CNCC32)O1 (single isomer, unassigned) [Example 49A]
7.3 | C[C@@H]1CN(c2ccc(C(F)(F)F)c3ncccc23)C[C@H](C(=O)NC2CC3CNCC32)O1 (single isomer, unassigned) [Example 49B]
7.7 | C[C@@H]1CN(c2ccc(C(F)(F)F)c3ncccc23)C[C@H](C(=O)NC2CC3CNCC32)O1 (single isomer, unassigned) [Example 49C]
9.7 | C[C@H]1C[C@@H](N)CN(c2ccc(C(F)(F)F)c3ncccc23)C1 [Example 1, (3R,5S)-5-methyl-1-[8-(trifluoromethyl)-5-quinolyl]piperidin-3-amine]
51.8 | C[C@@H]1CN(c2ccc(C(F)(F)F)c3ncccc23)C[C@H](C(=O)NC2CNC[C@@H]2F)O1 (stereo partly drawn) [Example 2, cis-(2R,6R)-N-(4-fluoropyrrolidin-3-yl)-6-methyl-4-[8-(trifluoromethyl)-5-quinolyl]morpholine-2-carboxamide]
81.9 | C[C@@H]1CN(c2ccc(C(F)(F)F)c3ncccc23)C[C@H](C(=O)NCC2CN(C)CCO2)O1 (stereo partly drawn) [Example 3, (2R,6R)-6-methyl-N-[(4-methylmorpholin-2-yl)methyl]-4-[8-(trifluoromethyl)-5-quinolyl]morpholine-2-carboxamide]
11.4 | C[C@@H]1CN(c2ccc(C(F)(F)F)c3ncccc23)C[C@H](C(=O)NCC2CCCCN2C)O1 (stereo partly drawn) [Example 4, (2R,6R)-6-methyl-N-[(1-methyl-2-piperidyl)methyl]-4-[8-(trifluoromethyl)-5-quinolyl]morpholine-2-carboxamide]
15.5 | C[C@@H]1CN(c2ccc(C(F)(F)F)c3ncccc23)C[C@H](C(=O)NC2CCN(C)CC2)O1 [Example 5, (2R,6R)-6-methyl-N-(1-methyl-4-piperidyl)-4-[8-(trifluoromethyl)-5-quinolyl]morpholine-2-carboxamide]
29.8 | C[C@@H]1CN(c2ccc(C(F)(F)F)c3ncccc23)C[C@H](C(=O)NCC(C)(C)N)O1 [Example 6, (2R,6R)-N-(2-amino-2-methyl-propyl)-6-methyl-4-[8-(trifluoromethyl)-5-quinolyl]morpholine-2-carboxamide]
68.5 | C[C@@H]1CN(c2ccc(C(F)(F)F)c3ncccc23)C[C@H](C(=O)N2CC(N)C2)O1 [Example 7, (3-aminoazetidin-1-yl)-[(2R,6R)-6-methyl-4-[8-(trifluoromethyl)-5-quinolyl]morpholin-2-yl]methanone]
10.3 | C[C@@H]1CN(c2ccc(C(F)(F)F)c3ncccc23)C[C@H](C(=O)NC2CCCNCC2)O1 (stereo partly drawn) [Example 8, (2R,6R)-N-(azepan-4-yl)-6-methyl-4-[8-(trifluoromethyl)-5-quinolyl]morpholine-2-carboxamide]
18.4 | C[C@@H]1CN(c2ccc(C(F)(F)F)c3ncccc23)C[C@H](C(=O)N2CCC(N)C2)O1 (stereo partly drawn) [Example 10, (3-aminopyrrolidin-1-yl)-[(2R,6R)-6-methyl-4-[8-(trifluoromethyl)-5-quinolyl]morpholin-2-yl]methanone]
> 100 | C[C@@H]1CN(c2ccc(C(F)(F)F)c3ncccc23)C[C@H](C(=O)NCC2COCCN2C)O1 (stereo partly drawn) [Example 11, (2R,6R)-6-methyl-N-[(4-methylmorpholin-3-yl)methyl]-4-[8-(trifluoromethyl)-5-quinolyl]morpholine-2-carboxamide]
6.3 | C[C@@H]1CN(c2ccc(C(F)(F)F)c3ncccc23)C[C@H](C(=O)N2CCC(N)CC2)O1 [Example 12, (4-amino-1-piperidyl)-[(2R,6R)-6-methyl-4-[8-(trifluoromethyl)-5-quinolyl]morpholin-2-yl]methanone]
> 100 | C[C@@H]1CN(c2ccc(C(F)(F)F)c3ncccc23)C[C@H](C(=O)NCCN2CCOCC2)O1 [Example 13, (2R,6R)-6-methyl-N-(2-morpholinoethyl)-4-[8-(trifluoromethyl)-5-quinolyl]morpholine-2-carboxamide]
29.4 | C[C@@H]1CN(c2ccc(C(F)(F)F)c3ncccc23)C[C@H](C(=O)NC2CNCCOC2)O1 (stereo partly drawn) [Example 14, (2R,6R)-6-methyl-N-(1,4-oxazepan-6-yl)-4-[8-(trifluoromethyl)-5-quinolyl]morpholine-2-carboxamide]
14 | Cc1ccc(N2C[C@@H](C)C[C@@H](N)C2)c2cccnc12 [Example 15, (3R,5S)-5-methyl-1-(8-methyl-5-quinolyl)piperidin-3-amine]
39.9 | Cc1ccc(N2C[C@@H](C)O[C@@H](C(=O)NC3CCN(C)CC3)C2)c2cccnc12 [Example 16, (2R,6R)-6-methyl-N-(1-methyl-4-piperidyl)-4-(8-methyl-5-quinolyl)morpholine-2-carboxamide]

Compound | IC50 [µM]
C[C@@H]1CN(c2ccc(C(F)(F)F)c3ncccc23)C[C@H](C(=O)NC2CC3CCCC(C2)N3)O1 (single isomer, unassigned) [Example 34A] | 8.5
C[C@@H]1CN(c2ccc(C(F)(F)F)c3ncccc23)C[C@H](C(=O)NC2CC3CCCC(C2)N3)O1 (single isomer, unassigned) [Example 34B] | 10
C[C@@H]1CN(c2ccc(C(F)(F)F)c3ncccc23)C[C@H](C(=O)NC2CC3CCC(C2)N3)O1 (single isomer, unassigned) [Example 47A] | 10.1
C[C@@H]1CN(c2ccc(C(F)(F)F)c3ncccc23)C[C@H](C(=O)NC2CC3CCC(C2)N3)O1 (single isomer, unassigned) [Example 47B] | 10.5
C[C@@H]1CN(c2ccc(C(F)(F)F)c3ncccc23)C[C@H](C(=O)NC2CN(C)CC23CC3)O1 (stereo partly drawn) [Example 9, (2R,6R)-6-methyl-N-(5-methyl-5-azaspiro[2.4]heptan-7-yl)-4-[8-(trifluoromethyl)-5-quinolyl]morpholine-2-carboxamide] | 10.9
